# From patent US20100210713A1, “REGENERATION AND SURVIVAL OF CARDIAC PROGENITORS AND CARDIOMYOCYTES WITH A STRETCH ACTIVATED TRANSCRIPTION FACTOR” (THE GENERAL HOSPITAL CORPORATION, priority 2009, published 2010)
# Entries after “also recorded” stand apart in the source; their conditions may differ.
# B1: Creb312(N): nuclear form of Creb312, residues 1-376 of the full length Creb312 (SEQ ID NO: 3) (protein, listed as Homo sapiens)
# chain: MEVLESGEQGVLQWDRKLSELSEPGDGEALMYHTHFSELLDEFSQNVLGQLLNDPFLSEKSVSMEVEPSPTSPAPLIQAEHSYSLCEEPRAQSPFTHITTSDSFNDDEVESEKWYLSTDFPSTSIKTEPVTDEPPPGLVPSVTLTITAISTPLEKEEPPLEMNTGVDSSCQTIIPKIKLEPHEVDQFLNFSPKEAPVDHLHLPPTPPSSHGSDSEGSLSPNPRLHPFSLPQTHSPSRAAPRAPSALSSSPLLTAPHKLQGSGPLVLTEEEKRTLIAEGYPIPTKLPLSKSEEKALKKIRRKIKNKISAQESRRKKKEYMDSLEKKVESCSTENLELRKKVEVLENTNRTLLQQLQKLQTLVMGKVSRTCKLAGTQT
# How the values were obtained:
# Creb312 [1] = test: Formation of nuclear Creb312 in Ad.Creb312(FL)-transduced NRVM under biaxial mechanical stretch after pathway inhibition (immunoblot); assay type: cell-based, rat; details: NRVM with Ad.Creb312(FL), inhibitor 30 min prior to 10% pulsary (cyclic) biaxial stretch, Akt1/2 inhibitor 1 μM, SH6 10 μM, LY294002 10 μM, PD98059 25 μM, U0126 10 μM, SP600125 10 μM, PP2 1 μM, SB203580 25 μM, wortmannin 200 nM, FIG. 5
# Procedure: Biaxial mechanical stretch experiments. Freshly isolated NRVM were seeded at 10^6 on fibronectin-coated silicon membranes and transduced with Ad.Creb312(FL) 48 h later. 2 days later, biaxial mechanical stretch experiments were carried out on devices as previously described (Ref, Andre Kleber paper) for indicated times. Cells were rinsed once in ice-cold PBS, harvested, lysed and processed for immunoblot. For inhibition experiments, NRVM were treated with chemical inhibitors for 30 min prior to stretching. All chemical inhibitors used were from Calbiochem except Akt1/2 inhibitor and wortmannin (Sigma). Concentrations used were: Akt1/2 inhibitor (1 μM), SH6 (10 μM), LY294002 (10 μM), PD98059 (25 μM), U0126 (10 μM), SP600125 (10 μM), PP2 (1 μM), SB203580 (25 μM), wortmannin (200 nM). […]
# Immunoprecipitation and Immunoblot. For immunoprecipitation, 10 μg pcDNA3/3xFlag-Creb312(N) were transfected into COS7 cells with Fugene HD (Roche). 48 h later, cells were washed once with PBS, harvested and lysed in 50 mM Tris-HCl pH 7.4, 150 mM NaCl, 1% Triton X-100 and Complete Protease Inhibitor (Roche) on ice. After centrifugation at 13000 rpm, 30 min, 4C, the supernatant was used for subsequent experiments. Embryonic hearts of various stages were homogenized in ice-cold PBS with a Rotor-Stator Homogenizer, and nuclear extracts were prepared from the cell pellets using the NE-PER Nuclear and Cytoplasmic Extraction Reagents (Pierce). Protein concentrations were determined with the Protein Assay Dye Reagent (Bio-Rad). 1.8 mg 3× Flag-Creb312(N) protein extract and 25 μg heart nuclear extract were rotated with 40 μl anti-Flag M2 Affinity gel (Sigma) at 4C over night. Resins were washed twice each with 50 mM Tris-HCl pH 7.4, 150 mM NaCl with or without 0.1% Triton X-100, eluted with 15 μg 3× Flag peptide (Sigma), and 25 μl or 75 μl eluate were loaded on 10% SDS-polyacrylamide gels for subsequent immunoblot analysis. For immunoblots of mechanical stretch- or chemically treated-cardiomyocytes, 25 μg total cell extract were separated on 10% SDS-polyacrylamide gels. Primary antibodies used were: anti-Flag M2 (Sigma, 1:200), anti-HA (Bethyl, 1:4000), anti-Creb312 (1:2000), anti-phospho (Ser473)Akt (Cell Signaling, 1:1000), anti-phospho (Thr308)Akt (Cell Signaling, 1:1000), anti-Akt (Cell Signaling, 1:1000), anti-phospho p44/42 (Cell Signaling, 1:1000). Secondary antibodies (horseradish peroxidase-conjugated rabbit anti-mouse IgG or goat anti-rabbit IgG, Dako) were used at 1:10^5′ and immunoblots were developed with SuperSignal West Femto Substrate (Pierce).
# Creb312 [2] = test: Proteolytic cleavage of HA-tagged full-length Creb312 to the nuclear form in NRVM after chemical ER stressors or hypertrophic agonists (Western Blot, anti-HA); assay type: cell-based, rat
# Procedure: Isolation of neonatal rat ventricular cardiomyocytes. All procedures described below were conducted according to the guidelines of the Harvard University Animal Care and Use Committee. Ventricular myocytes were isolated from 2 day-old Sprague Dawley rats as briefly described. Excised ventricular tissue was agitated in a 0.1% trypsin solution cooled to 4° C. for approximately 14 hours. Trypsinized ventricles were dissociated into their cellular constituents via serial exposure to a 0.1% solution of collagenase type II at 37° C. for 2 minutes. The myocyte portion of the cell population was enriched by passing the dissociated cell solution through a nylon mesh with 40 μm pores, and then pre-plating twice for 45 minutes each time. 10^6 isolated myocytes were seeded onto silicon membranes coated with fibronectin in culture medium consisting of M199 base supplemented with 10% heat-inactivated Fetal Bovine Serum, 10 mM HEPES, 20 mM glucose, 2 mM L-glutamine, 1.5 ? M vitamin B-12, and 50 U/ml penicillin. On the second day of culture, the serum concentration of the medium was reduced to 2%, and the medium was changed every 48 hours thereafter.
# Adenovirus preparation and infection. Replication-defective recombinant adenoviruses expressing GFP and either HA-Creb312(FL) or HA-Creb312(N) under the control of CMV in bicistronic cassettes were generated using the AdEasy XL system (Stratagene). Briefly, HA-Creb312(FL) or HA-Creb312(N) were subcloned into the adenovirus shuttle vector pAdTrack-CMV (generous gift by Bert Vogelstein, Ref), and these constructs used for the generation of Ad.Creb312(FL) or Ad.Creb312(N), respectively, according to manufacturer's instructions. Adenoviral shuttle constructs for the expression of miRNAs against rat ILK, rat FAK, rat Creb312 under the control of hCMV were obtained by subcloning the XbaI/HindIII fragments of the respective miRNA expression constructs in pcDNA6-GW/EmGFP-miR (Invitrogen) into pShuttle (Stratagene). The recombinant adenoviruses were concentrated and purified by CsCl gradient ultracentrifugation, and the virus titer was determined through plaque assay.
# NRVM were transduced with adenovirus at 5 moi (multiplicity of infection) in serum-free M199 for 90 min and maintained for 48 h in M-199/2% FCS before mechanical stretch, hypoxia experiments or treatment with chemicals.
# Treatment with chemical ER stressors, cardiac hypertrophic agonists, hypoxic stress. 5×10^5 NRVM were plated in 6 well plates, transduced with Ad.Creb312(FL) and treated 48 h afterwards with tunicamycin (Tm), thapsigargin (Tg), brefeldin A (BFA) or DTT (1 mM) for 30 min and harvested for immunoblot analyses. Alternatively, NRVM were treated with phenylephrine, angiotensin II, endothelin or isoproterenol for 24 h. For hypoxic stress, 5×10^5 NRVM were plated in 6 well plates and switched from 20% O2/5% CO2 to 0.1% O2/5% CO2 for the indicated times.
# Immunoprecipitation and Immunoblot. For immunoprecipitation, 10 μg pcDNA3/3xFlag-Creb312(N) were transfected into COS7 cells with Fugene HD (Roche). 48 h later, cells were washed once with PBS, harvested and lysed in 50 mM Tris-HCl pH 7.4, 150 mM NaCl, 1% Triton X-100 and Complete Protease Inhibitor (Roche) on ice. After centrifugation at 13000 rpm, 30 min, 4C, the supernatant was used for subsequent experiments. Embryonic hearts of various stages were homogenized in ice-cold PBS with a Rotor-Stator Homogenizer, and nuclear extracts were prepared from the cell pellets using the NE-PER Nuclear and Cytoplasmic Extraction Reagents (Pierce). Protein concentrations were determined with the Protein Assay Dye Reagent (Bio-Rad). 1.8 mg 3× Flag-Creb312(N) protein extract and 25 μg heart nuclear extract were rotated with 40 μl anti-Flag M2 Affinity gel (Sigma) at 4C over night. […]
# BNP promoter region = test: BNP promoter regulated luciferase gene expression assay; assay type: cell-based; details: for BNP regulated luciferase gene expression: 10 ng DNA
# From the text: (§1) FIGS. 8A-8D show the nuclear form of Creb312 activates BNP regulated luciferase gene expression.
# ANF promoter region = test: ANF promoter regulated luciferase gene expression assay; assay type: cell-based; details: 700 bp promoter region of ANF; 50 ng DNA; FIG. 8B
# From the text: as §1
# [3] = NRVM transduced with Ad.Creb312(FL), ER stress-inducing chemicals, within one hour, Western Blot anti-HA
# [4] = NRVM expressing HA-Creb312(FL), 24 h exposure to hypertrophic agonists, FIG. 4D
molecule,measurement,setting,value
O=c1[nH]c2ccccc2n1C1CCN(Cc2ccc(-c3nc4cc5[nH]cnc5cc4nc3-c3ccccc3)cc2)CC1 [Akt1/2],"effect on formation of the proteolytically cleaved, nuclear form of Creb312 in response to mechanical stretch",Creb312 [1],complete ablation
same,"effect on formation of the proteolytically cleaved, nuclear form of Creb312 in response to mechanical stretch",Creb312 [1]; listed as Akt1/2 Inh,completely inhibited
"O[C@H](CS)[C@H](O)CS (racemic) [DTT, dithiothreitol]",proteolytic cleavage of Creb312 (formation of the nuclear form),Creb312 [2]; [3],to a lesser extend
Oc1c2ccccc2c2c3c(cccc13)N=N2 [SP600125],"effect on formation of the proteolytically cleaved, nuclear form of Creb312 in response to mechanical stretch",Creb312 [1],did not inhibit
CCCC(=O)Nc1ncnc2c1ncn2[C@@H]1O[C@@H]2COP(=O)(O)O[C@H]2[C@H]1OC(=O)CCC [dbcA],formation of nuclear Creb312 in response to cAMP treatment,"Creb312 [2]; NRVM, data not shown",nuclear Creb312 is formed
tunicamycin,proteolytic cleavage of Creb312 (formation of the nuclear form),Creb312 [2]; [3],to a lesser extend
C/C=C(/C)C(=O)O[C@H]1C(C)=C2[C@H]([C@@H]1OC(=O)CCCCCCC)[C@@](C)(OC(C)=O)C[C@H](OC(=O)CCC)[C@@]1(O)[C@H]2OC(=O)[C@@]1(C)O [thapsigargin],proteolytic cleavage of Creb312 (formation of the nuclear form),Creb312 [2]; [3],caused proteolytic cleavage of Creb312
CC[C@H](C)[C@H](NC(=O)[C@H](CC(=O)O)NC(=O)[C@H](CC(C)C)NC(=O)[C@H](Cc1c[nH]cn1)NC(=O)[C@@H]1CSSC[C@H](N)C(=O)N[C@@H](CO)C(=O)N[C@H]2CSSC[C@H](NC(=O)[C@H](CCC(=O)O)NC(=O)[C@H](CCCCN)NC(=O)[C@H](CC(=O)O)NC(=O)[C@H](CCSC)NC(=O)[C@H](CC(C)C)NC(=O)[C@H](CO)NC(=O)[C@H](CO)NC2=O)C(=O)N[C@@H](C(C)C)C(=O)N[C@@H](Cc2ccc(O)cc2)C(=O)N[C@@H](Cc2ccccc2)C(=O)N1)C(=O)N[C@H](C(=O)N[C@@H](Cc1c[nH]c2ccccc12)C(=O)O)[C@@H](C)CC [endothelin-1],proteolytic cleavage of Creb312 (formation of the nuclear form),Creb312 [2]; [4],"formation of the proteolytically cleaved, nuclear form of Creb312"
C[C@H]1CCC/C=C/[C@@H]2C[C@H](O)C[C@H]2[C@H](O)/C=C/C(=O)O1 [brefeldinA],proteolytic cleavage of Creb312 (formation of the nuclear form),Creb312 [2]; [3],caused proteolytic cleavage of Creb312
CC(C)NCC(O)c1ccc(O)c(O)c1 (centres unmarked) [isoproterenol],proteolytic cleavage of Creb312 (formation of the nuclear form),Creb312 [2]; [4],"most strongly induced; also recorded: formation of the proteolytically cleaved, nuclear form of Creb312"
CNC[C@H](O)c1cccc(O)c1 [phenylephrine],proteolytic cleavage of Creb312 (formation of the nuclear form),Creb312 [2]; [4],"most strongly induced; also recorded: formation of the proteolytically cleaved, nuclear form of Creb312"
C[S+]([O-])c1ccc(-c2nc(-c3ccncc3)c(-c3ccc(F)cc3)[nH]2)cc1 (centres unmarked) [SB203580],"effect on formation of the proteolytically cleaved, nuclear form of Creb312 in response to mechanical stretch",Creb312 [1],did not show any effect; also recorded: did not inhibit
"angiotensin-2 (DRVYIHPF; Angiotensin-2; UniProt P01019 25-32, looked up) [hypertrophic agonist]",proteolytic cleavage of Creb312 (formation of the nuclear form),Creb312 [2]; [4],"formation of the proteolytically cleaved, nuclear form of Creb312"
COc1cccc(-c2cc(=O)c3ccccc3o2)c1N [PD98059],"effect on formation of the proteolytically cleaved, nuclear form of Creb312 in response to mechanical stretch",Creb312 [1],did not show any effect; also recorded: did not inhibit
N#CC(=C(/N)Sc1ccccc1N)/C(C#N)=C(\N)Sc1ccccc1N [U0126],"effect on formation of the proteolytically cleaved, nuclear form of Creb312 in response to mechanical stretch",Creb312 [1],did not show any effect; also recorded: did not inhibit
CC(C)(C)n1nc(-c2ccc(Cl)cc2)c2c(N)ncnc21 [PP2],"effect on formation of the proteolytically cleaved, nuclear form of Creb312 in response to mechanical stretch",Creb312 [1],did not show any effect; also recorded: did not inhibit
B1,BNP regulated luciferase gene expression,"BNP promoter region; 2 kb promoter region of BNP, FIG. 8C",induced
same,BNP regulated luciferase gene expression,"BNP promoter region; 135 bp promoter region of BNP, FIG. 8D",induced
same,fold activation of luciferase gene expression,"BNP promoter region; (−135 to −115) BNP promoter region, 200 ng DNA, FIG. 10C",three fold
same,ANF regulated luciferase gene expression,ANF promoter region,induced
